In ChEMBL document CHEMBL5724914, “Linking interpersonal differences in gut microbiota composition and drug biotransformation activity” (2024):

assay: (§1) The drug is tested on Z-012 corresponding to metagenome with ENA study accession number: PRJEB37062 and ENA sample accession number: ERS12561812 for biotransformation under anaerobic condition. The drug concentrations were measured over 9 timepoints collected between 0 and 24 hours of incubation by liquid-chromatography-coupled mass spectrometry (LC–MS); conditions: 2 µM
Note: call rule not given here.

SMILES | Bacterial Biotransformation
Nc1c2c(nc3ccccc13)CCCC2 [TACRINE] | Compound NOT metabolized
CC(Oc1c(Cl)cccc1Cl)C1=NCCN1 (stereo not given) [LOFEXIDINE] | Compound NOT metabolized
O=c1[nH]c2ccccc2n1C1CCN(CCCC(c2ccc(F)cc2)c2ccc(F)cc2)CC1 [PIMOZIDE] | Compound metabolized

assay: (§2) The drug is tested on Z-007 corresponding to rat gut metagenome with ENA study accession number: PRJEB37062 and ENA sample accession number: ERS12561807 for biotransformation under anaerobic condition. The drug concentrations were measured over 9 timepoints collected between 0 and 24 hours of incubation by liquid-chromatography-coupled mass spectrometry (LC–MS); conditions: 2 µM

SMILES | Bacterial Biotransformation
Nc1c2c(nc3ccccc13)CCCC2 [TACRINE] | Compound NOT metabolized
CC(Oc1c(Cl)cccc1Cl)C1=NCCN1 (stereo not given) [LOFEXIDINE] | Compound NOT metabolized
O=c1[nH]c2ccccc2n1C1CCN(CCCC(c2ccc(F)cc2)c2ccc(F)cc2)CC1 [PIMOZIDE] | Compound metabolized

assay: as §1, with “Z-005” for “Z-012”, “ERS12561805” for “ERS12561812”; conditions: 2 µM

SMILES | Bacterial Biotransformation
Nc1c2c(nc3ccccc13)CCCC2 [TACRINE] | Compound NOT metabolized
CC(Oc1c(Cl)cccc1Cl)C1=NCCN1 (stereo not given) [LOFEXIDINE] | Compound NOT metabolized
O=c1[nH]c2ccccc2n1C1CCN(CCCC(c2ccc(F)cc2)c2ccc(F)cc2)CC1 [PIMOZIDE] | Compound metabolized

conditions: human gut metagenome, 24 h, 2 µM

SMILES | Bacterial Biotransformation
Nc1c2c(nc3ccccc13)CCCC2 [TACRINE] | Compound metabolized
CC(Oc1c(Cl)cccc1Cl)C1=NCCN1 (stereo not given) [LOFEXIDINE] | Compound NOT metabolized
O=c1[nH]c2ccccc2n1C1CCN(CCCC(c2ccc(F)cc2)c2ccc(F)cc2)CC1 [PIMOZIDE] | Compound metabolized

assay: as §2, with “Z-029” for “Z-007”, “ERS12561828” for “ERS12561807”; conditions: 2 µM

SMILES | Bacterial Biotransformation
Nc1c2c(nc3ccccc13)CCCC2 [TACRINE] | Compound NOT metabolized
CC(Oc1c(Cl)cccc1Cl)C1=NCCN1 (stereo not given) [LOFEXIDINE] | Compound NOT metabolized
O=c1[nH]c2ccccc2n1C1CCN(CCCC(c2ccc(F)cc2)c2ccc(F)cc2)CC1 [PIMOZIDE] | Compound NOT metabolized

conditions: human gut metagenome, 24 h, 2 µM; remark: another data set of the same source

SMILES | Bacterial Biotransformation
Nc1c2c(nc3ccccc13)CCCC2 [TACRINE] | Compound NOT metabolized
CC(Oc1c(Cl)cccc1Cl)C1=NCCN1 (stereo not given) [LOFEXIDINE] | Compound NOT metabolized
O=c1[nH]c2ccccc2n1C1CCN(CCCC(c2ccc(F)cc2)c2ccc(F)cc2)CC1 [PIMOZIDE] | Compound NOT metabolized

assay: as §2, with “on WLS-082” for “on Z-007”, “to human” for “to rat”, “number: ERS12561751” for “number: ERS12561807”; conditions: 2 µM

SMILES | Bacterial Biotransformation
Nc1c2c(nc3ccccc13)CCCC2 [TACRINE] | Compound NOT metabolized
CC(Oc1c(Cl)cccc1Cl)C1=NCCN1 (stereo not given) [LOFEXIDINE] | Compound NOT metabolized
O=c1[nH]c2ccccc2n1C1CCN(CCCC(c2ccc(F)cc2)c2ccc(F)cc2)CC1 [PIMOZIDE] | Compound metabolized

assay: as §2, with “on Z-003” for “on Z-007”, “to pig” for “to rat”, “number: ERS12561803” for “number: ERS12561807”; conditions: 2 µM

SMILES | Bacterial Biotransformation
Nc1c2c(nc3ccccc13)CCCC2 [TACRINE] | Compound NOT metabolized
CC(Oc1c(Cl)cccc1Cl)C1=NCCN1 (stereo not given) [LOFEXIDINE] | Compound NOT metabolized
O=c1[nH]c2ccccc2n1C1CCN(CCCC(c2ccc(F)cc2)c2ccc(F)cc2)CC1 [PIMOZIDE] | Compound metabolized

conditions: human gut metagenome, 24 h, 2 µM; remark: another data set of the same source

SMILES | Bacterial Biotransformation
Nc1c2c(nc3ccccc13)CCCC2 [TACRINE] | Compound NOT metabolized
CC(Oc1c(Cl)cccc1Cl)C1=NCCN1 (stereo not given) [LOFEXIDINE] | Compound NOT metabolized
O=c1[nH]c2ccccc2n1C1CCN(CCCC(c2ccc(F)cc2)c2ccc(F)cc2)CC1 [PIMOZIDE] | Compound metabolized

conditions: human gut metagenome, 24 h, 2 µM; remark: another data set of the same source

SMILES | Bacterial Biotransformation
Nc1c2c(nc3ccccc13)CCCC2 [TACRINE] | Compound metabolized
CC(Oc1c(Cl)cccc1Cl)C1=NCCN1 (stereo not given) [LOFEXIDINE] | Compound metabolized
O=c1[nH]c2ccccc2n1C1CCN(CCCC(c2ccc(F)cc2)c2ccc(F)cc2)CC1 [PIMOZIDE] | Compound metabolized

conditions: human gut metagenome, 24 h, 2 µM; remark: another data set of the same source

SMILES | Bacterial Biotransformation
Nc1c2c(nc3ccccc13)CCCC2 [TACRINE] | Compound metabolized
CC(Oc1c(Cl)cccc1Cl)C1=NCCN1 (stereo not given) [LOFEXIDINE] | Compound metabolized
O=c1[nH]c2ccccc2n1C1CCN(CCCC(c2ccc(F)cc2)c2ccc(F)cc2)CC1 [PIMOZIDE] | Compound metabolized

assay: as §2, with “on WLS-350” for “on Z-007”, “to human” for “to rat”, “number: ERS12561789” for “number: ERS12561807”; conditions: 2 µM

SMILES | Bacterial Biotransformation
Nc1c2c(nc3ccccc13)CCCC2 [TACRINE] | Compound NOT metabolized
CC(Oc1c(Cl)cccc1Cl)C1=NCCN1 (stereo not given) [LOFEXIDINE] | Compound NOT metabolized
O=c1[nH]c2ccccc2n1C1CCN(CCCC(c2ccc(F)cc2)c2ccc(F)cc2)CC1 [PIMOZIDE] | Compound metabolized

conditions: human gut metagenome, 24 h, 2 µM; remark: another data set of the same source

SMILES | Bacterial Biotransformation
Nc1c2c(nc3ccccc13)CCCC2 [TACRINE] | Compound NOT metabolized
CC(Oc1c(Cl)cccc1Cl)C1=NCCN1 (stereo not given) [LOFEXIDINE] | Compound NOT metabolized
O=c1[nH]c2ccccc2n1C1CCN(CCCC(c2ccc(F)cc2)c2ccc(F)cc2)CC1 [PIMOZIDE] | Compound metabolized

conditions: human gut metagenome, 24 h, 2 µM; remark: another data set of the same source

SMILES | Bacterial Biotransformation
Nc1c2c(nc3ccccc13)CCCC2 [TACRINE] | Compound NOT metabolized
CC(Oc1c(Cl)cccc1Cl)C1=NCCN1 (stereo not given) [LOFEXIDINE] | Compound NOT metabolized
O=c1[nH]c2ccccc2n1C1CCN(CCCC(c2ccc(F)cc2)c2ccc(F)cc2)CC1 [PIMOZIDE] | Compound metabolized

conditions: human gut metagenome, 24 h, 2 µM; remark: another data set of the same source

SMILES | Bacterial Biotransformation
Nc1c2c(nc3ccccc13)CCCC2 [TACRINE] | Compound NOT metabolized
CC(Oc1c(Cl)cccc1Cl)C1=NCCN1 (stereo not given) [LOFEXIDINE] | Compound NOT metabolized
O=c1[nH]c2ccccc2n1C1CCN(CCCC(c2ccc(F)cc2)c2ccc(F)cc2)CC1 [PIMOZIDE] | Compound metabolized

conditions: human gut metagenome, 24 h, 2 µM; remark: another data set of the same source

SMILES | Bacterial Biotransformation
Nc1c2c(nc3ccccc13)CCCC2 [TACRINE] | Compound metabolized
CC(Oc1c(Cl)cccc1Cl)C1=NCCN1 (stereo not given) [LOFEXIDINE] | Compound NOT metabolized
O=c1[nH]c2ccccc2n1C1CCN(CCCC(c2ccc(F)cc2)c2ccc(F)cc2)CC1 [PIMOZIDE] | Compound metabolized

assay: as §2, with “on WLS-240” for “on Z-007”, “to human” for “to rat”, “number: ERS12561773” for “number: ERS12561807”; conditions: 2 µM

SMILES | Bacterial Biotransformation
Nc1c2c(nc3ccccc13)CCCC2 [TACRINE] | Compound metabolized
CC(Oc1c(Cl)cccc1Cl)C1=NCCN1 (stereo not given) [LOFEXIDINE] | Compound metabolized
O=c1[nH]c2ccccc2n1C1CCN(CCCC(c2ccc(F)cc2)c2ccc(F)cc2)CC1 [PIMOZIDE] | Compound metabolized

assay: as §2, with “on Z-018” for “on Z-007”, “to pig” for “to rat”, “number: ERS12561817” for “number: ERS12561807”; conditions: 2 µM

SMILES | Bacterial Biotransformation
Nc1c2c(nc3ccccc13)CCCC2 [TACRINE] | Compound NOT metabolized
CC(Oc1c(Cl)cccc1Cl)C1=NCCN1 (stereo not given) [LOFEXIDINE] | Compound NOT metabolized
O=c1[nH]c2ccccc2n1C1CCN(CCCC(c2ccc(F)cc2)c2ccc(F)cc2)CC1 [PIMOZIDE] | Compound metabolized

conditions: human gut metagenome, 24 h, 2 µM; remark: another data set of the same source

SMILES | Bacterial Biotransformation
Nc1c2c(nc3ccccc13)CCCC2 [TACRINE] | Compound NOT metabolized
CC(Oc1c(Cl)cccc1Cl)C1=NCCN1 (stereo not given) [LOFEXIDINE] | Compound NOT metabolized
O=c1[nH]c2ccccc2n1C1CCN(CCCC(c2ccc(F)cc2)c2ccc(F)cc2)CC1 [PIMOZIDE] | Compound NOT metabolized

conditions: human gut metagenome, 24 h, 2 µM; remark: another data set of the same source

SMILES | Bacterial Biotransformation
Nc1c2c(nc3ccccc13)CCCC2 [TACRINE] | Compound metabolized
CC(Oc1c(Cl)cccc1Cl)C1=NCCN1 (stereo not given) [LOFEXIDINE] | Compound NOT metabolized
O=c1[nH]c2ccccc2n1C1CCN(CCCC(c2ccc(F)cc2)c2ccc(F)cc2)CC1 [PIMOZIDE] | Compound metabolized
